Data on eight compounds can be found in patent publication US11174245B2, “Benzimidazole compounds and derivatives as EGFR inhibitors” (Boehringer Ingelheim International GmbH, priority 2018, dated 2021).

Where two headings read alike, the source gives them in different places.

In assay [1] the target is EGFR (mutated) 695-1022, T790M, C797S, L858R (Homo sapiens (Human), UniProt P00533, C797S/L858R/T790M). As to the kind of experiment: Biochemical EGFR inhibition assay (TR-FRET, poly-GT substrate), EGFR T790M C797S L858R. The procedure, abridged:
(§1)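 Phosphorylation of tagged poly-GT substrate by EGFR forms measured at 5 μM and 100 μM ATP (final). Top compound concentration 100 μM, eleven fivefold dilutions, in duplicate. Results given as IC50.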

The target in another assay is EGFR wt (Homo sapiens (Human), UniProt P00533). The assay can be described thus: Biochemical EGFR inhibition assay (TR-FRET, poly-GT substrate), EGFR wt. The procedure, abridged: as §1
Sequence of EGFR wt (P00533 25-1210): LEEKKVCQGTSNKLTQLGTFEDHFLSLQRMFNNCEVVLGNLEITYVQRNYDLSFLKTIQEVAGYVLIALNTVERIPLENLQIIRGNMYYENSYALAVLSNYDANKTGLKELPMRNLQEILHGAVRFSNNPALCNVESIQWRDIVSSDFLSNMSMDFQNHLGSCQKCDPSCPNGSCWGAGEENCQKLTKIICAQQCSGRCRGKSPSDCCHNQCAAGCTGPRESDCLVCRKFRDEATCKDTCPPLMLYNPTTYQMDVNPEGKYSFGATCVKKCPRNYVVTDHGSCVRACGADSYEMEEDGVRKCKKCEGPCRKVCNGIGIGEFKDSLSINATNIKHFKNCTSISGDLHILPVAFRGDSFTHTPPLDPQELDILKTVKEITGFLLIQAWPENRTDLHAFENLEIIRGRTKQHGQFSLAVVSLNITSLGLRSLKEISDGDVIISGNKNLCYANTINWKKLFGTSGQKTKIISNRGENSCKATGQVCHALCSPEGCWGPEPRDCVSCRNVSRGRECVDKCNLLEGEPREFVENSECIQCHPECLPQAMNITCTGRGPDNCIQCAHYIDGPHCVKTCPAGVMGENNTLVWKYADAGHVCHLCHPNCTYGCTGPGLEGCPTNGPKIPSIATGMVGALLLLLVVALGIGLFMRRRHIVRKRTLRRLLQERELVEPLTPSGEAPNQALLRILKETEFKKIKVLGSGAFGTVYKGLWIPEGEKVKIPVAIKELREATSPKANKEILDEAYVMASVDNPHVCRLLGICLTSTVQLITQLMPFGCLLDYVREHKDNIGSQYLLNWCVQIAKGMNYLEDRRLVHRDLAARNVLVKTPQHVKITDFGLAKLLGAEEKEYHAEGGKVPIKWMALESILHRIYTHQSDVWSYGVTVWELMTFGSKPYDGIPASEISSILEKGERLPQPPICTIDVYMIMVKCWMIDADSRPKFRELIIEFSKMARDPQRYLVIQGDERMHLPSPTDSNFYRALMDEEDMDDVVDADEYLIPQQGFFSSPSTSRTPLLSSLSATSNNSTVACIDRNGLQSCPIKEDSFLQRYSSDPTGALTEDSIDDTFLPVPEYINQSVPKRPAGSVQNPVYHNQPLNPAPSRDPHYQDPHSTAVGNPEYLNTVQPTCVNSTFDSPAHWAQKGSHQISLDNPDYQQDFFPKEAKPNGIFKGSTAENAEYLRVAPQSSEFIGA
In assay [2] the test system is Ba/F3 cells driven by EGFR mutants. The assay can be described thus: Ba/F3 proliferation assay (CellTiter-Glo viability), EGFR mutant alleles. In kind it is cell-based, murine. As to conditions: Mus musculus. The procedure:
(§2) Ba/F3 Cell Model Generation and Proliferation Assays
(§3) Plasmids containing EGFR mutants were obtained from GeneScript. To generate EGFR-dependent […] were transduced with retroviruses containing vectors that harbor EGFR isoforms. Platinum-E cells (Cell Biolabs) were used for retrovirus packaging. Retrovirus was added to Ba/F3 cells. To ensure infection, 4 μg/mL polybrene was added and cells were spinfected. Infection efficiency was confirmed by measuring GFP-positive cells using a cell analyzer. Cells with an infection efficiency of 10% to 20% were further cultivated and puromycin selection with 1 μg/mL was initiated. As a control, parental Ba/F3 cells were used to show selection status. Selection was considered successful when parental Ba/F3 cells cultures died. To evaluate the transforming potential of EGFR mutations, the growth medium was no longer supplemented with IL-3. Ba/F3 cells harboring the empty vector were used as a control. A switch from IL-3 to EGF was performed for Ba/F3 cells with the wildtype EGFR known for its dependency on EGF ligand. Approximately ten days before conducting the experiments, puromycin was left out. For proliferation assays (data in table 13), Ba/F3 cells were seeded into 96-well plates at 5×10^3 cells/100 μL in growth media. Compounds were added by using a HP D3000 Digital Dispenser. All treatments were performed in technical triplicates. Treated cells were incubated for 72 h at 37° C. with 5% CO2. CellTiter-Glo® Luminescent Cell Viability Assay (Promega) was performed and chemoluminescence was measured by using the multilabel Plate Reader VICTOR X4. The raw data were imported into and analyzed with the Boehringer Ingelheim proprietary software MegaLab (curve fitting based on the program PRISM, GraphPad Inc.).

Assay [3] relates to Ba/F3 cells with the wildtype EGFR. The assay can be described thus: Ba/F3 proliferation assay (CellTiter-Glo viability), wildtype EGFR with EGF. In kind it is cell-based, murine. As to conditions: Mus musculus, BaF3, Ba/F3 EGFR wt. The procedure:
as §2, §3

Assay [4] addresses EGFR del19 T790M C797S protein in Ba/F3 cells (Homo sapiens, UniProt P00533, C797S/DEL746-750/T790M). The assay can be described thus: pEGFR assay (AlphaScreen Surefire, EGFR Tyr1068 phosphorylation). The assay is classed as cell-based. Put shortly: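 Transduced Ba/F3 cells, puromycin-selected and grown IL-3 independent, were treated with compound at 60.000 cells/well for 4 h at 37° C. Lysis followed for 20 min at room temperature, and Tyr1068 phospho-EGFR in lysate was detected after 2 h dark incubation. Results are IC50 values.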

Assay [5] relates to Ba/F3 cells EGFR-indep. + IL-3. The assay can be described thus: Ba/F3 proliferation assay (CellTiter-Glo viability), EGFR-independent cells with IL-3. The assay is classed as cell-based, murine. As to conditions: Mus musculus, BaF3, Ba/F3 EGFR-independent + IL-3. The method, then: as §3
Assay [6] has as its target EGFR (d746-750 T790M C797S) (Homo sapiens (Human), UniProt P00533, C797S/DEL746-750/T790M). The assay can be described thus: Biochemical EGFR inhibition assay (TR-FRET, poly-GT substrate), EGFR d746-750 T790M C797S. As to conditions: 100 μM ATP. The procedure:
Biochemical EGFR Inhibition Assays
Initially, the inhibitory effect of compounds according to the invention is measured in biochemical assays which measure the phosphorylation activity of EGFR enzyme forms on poly-GT substrate in the presence of different concentrations of ATP (5 μM and 100 μM final assay concentration).
The following enzyme forms of EGFR are representative examples that can be used in these assays at the given concentrations:
For the chosen highest assay concentration of 100 μM, 150 nL of compound solution is transferred from a 10 mM DMSO compound stock solution. A series of eleven fivefold dilutions per compound is transferred to the assay plate, compound dilutions are tested in duplicates. DMSO is added as backfill to a total volume of 150 nL. The assay runs on a fully automated robotic system.
These biochemical EGFR enzyme form compound dose-response assays quantify the kinase activity via phosphorylation of a tagged poly-GT substrate. The results of the assay are provided as IC50 values.

The subject of a further assay is EGFR M+ NSCLC patients. As to conditions: cited from earlier work; for objective response rate: EGFR M+ NSCLC patients treated in 1st line.
In assay [7] the test system is EGFR M+ T790M-positive NSCLC patients. As to conditions: 2nd line, cited from earlier work.
[8] abbreviates: read-out: LR_TM_CS (5 μM ATP) IC50, 5 μM ATP.
Where [9] appears, read: read-out: LR_TM_CS (100 μM ATP) IC50, 100 μM ATP.
Setting [10] is: read-out: wt (5 μM ATP) IC50, 5 μM ATP.
Setting [11] is: read-out: wt (100 μM ATP) IC50, 100 μM ATP.
Setting [12] is: BaF3, Ba/F3 EGFR L858R C797S, read-out: IC50 EGFR L858R C797S.
[13] abbreviates: BaF3, Ba/F3 EGFR L858R T790M C797S, read-out: IC50 EGFR L858R T790M C797S.
The mark [14] stands for this setting: BaF3, Ba/F3 EGFR L858R T790M, read-out: IC50 EGFR L858R T790M.
Where [15] appears, read: BaF3, Ba/F3 EGFR L858R, read-out: IC50 EGFR L858R.
Where [16] appears, read: BaF3, Ba/F3 EGFR del19, read-out: IC50 EGFR del19.
The mark [17] stands for this setting: BaF3, Ba/F3 EGFR del19 C797S, read-out: IC50 EGFR del19 C797S.
Setting [18] is: BaF3, Ba/F3 EGFR del19 T790M C797S, read-out: IC50 EGFR del19 T790M C797S.
The mark [19] stands for this setting: BaF3, Ba/F3 EGFR del19 T790M, read-out: IC50 EGFR del19 T790M.

Sequence of EGFR del19 T790M C797S protein in Ba/F3 cells (P00533 with tags, fused parts or gaps C797S/DEL746-750/T790M limits assumed): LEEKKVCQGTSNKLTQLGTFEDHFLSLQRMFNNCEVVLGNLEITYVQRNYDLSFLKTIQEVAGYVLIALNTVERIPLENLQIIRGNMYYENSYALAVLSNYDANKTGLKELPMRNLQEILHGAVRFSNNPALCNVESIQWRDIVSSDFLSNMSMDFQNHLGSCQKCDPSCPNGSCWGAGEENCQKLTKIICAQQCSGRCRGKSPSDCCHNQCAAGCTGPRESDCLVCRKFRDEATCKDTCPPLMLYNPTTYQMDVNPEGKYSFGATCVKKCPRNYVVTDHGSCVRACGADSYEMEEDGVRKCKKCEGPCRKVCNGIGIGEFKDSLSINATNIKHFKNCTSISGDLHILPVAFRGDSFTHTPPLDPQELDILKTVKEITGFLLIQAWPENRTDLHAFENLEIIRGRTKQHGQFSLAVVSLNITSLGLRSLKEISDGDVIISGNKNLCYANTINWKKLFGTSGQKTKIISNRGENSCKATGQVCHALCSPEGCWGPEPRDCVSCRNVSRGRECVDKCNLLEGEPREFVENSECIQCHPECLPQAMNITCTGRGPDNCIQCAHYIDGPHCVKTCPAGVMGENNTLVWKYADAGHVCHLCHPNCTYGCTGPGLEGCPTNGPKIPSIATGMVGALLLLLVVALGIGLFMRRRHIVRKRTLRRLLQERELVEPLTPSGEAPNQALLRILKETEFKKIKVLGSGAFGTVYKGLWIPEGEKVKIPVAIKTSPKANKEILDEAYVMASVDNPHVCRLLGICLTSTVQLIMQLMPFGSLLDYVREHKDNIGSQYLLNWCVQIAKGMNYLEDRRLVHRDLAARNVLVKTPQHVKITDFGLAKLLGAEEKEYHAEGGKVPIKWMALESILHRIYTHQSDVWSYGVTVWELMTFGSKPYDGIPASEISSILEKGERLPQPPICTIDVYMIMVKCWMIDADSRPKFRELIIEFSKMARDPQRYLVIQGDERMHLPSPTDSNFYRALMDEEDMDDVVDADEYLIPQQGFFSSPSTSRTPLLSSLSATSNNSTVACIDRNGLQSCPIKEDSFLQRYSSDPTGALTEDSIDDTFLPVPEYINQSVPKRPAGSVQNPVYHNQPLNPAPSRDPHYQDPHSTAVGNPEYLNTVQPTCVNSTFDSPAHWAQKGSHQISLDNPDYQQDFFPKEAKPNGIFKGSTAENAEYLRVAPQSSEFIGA
Sequence of EGFR (mutated) 695-1022, T790M, C797S, L858R (P00533 695-1022 T790M/C797S/L858R): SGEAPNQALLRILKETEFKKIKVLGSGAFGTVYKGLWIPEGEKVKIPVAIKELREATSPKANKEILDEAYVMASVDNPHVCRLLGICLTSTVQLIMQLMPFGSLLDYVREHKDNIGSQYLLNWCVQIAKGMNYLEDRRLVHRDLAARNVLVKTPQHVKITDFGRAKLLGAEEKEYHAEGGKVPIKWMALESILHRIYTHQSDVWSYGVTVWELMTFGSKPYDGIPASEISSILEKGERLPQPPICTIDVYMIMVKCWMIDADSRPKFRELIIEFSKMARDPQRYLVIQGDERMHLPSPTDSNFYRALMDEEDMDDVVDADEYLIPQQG
Sequence of EGFR (d746-750 T790M C797S) (P00533 other isoform, or with tags, fused parts or gaps T790M/C797S/del 1-694/del 746-750 limits assumed): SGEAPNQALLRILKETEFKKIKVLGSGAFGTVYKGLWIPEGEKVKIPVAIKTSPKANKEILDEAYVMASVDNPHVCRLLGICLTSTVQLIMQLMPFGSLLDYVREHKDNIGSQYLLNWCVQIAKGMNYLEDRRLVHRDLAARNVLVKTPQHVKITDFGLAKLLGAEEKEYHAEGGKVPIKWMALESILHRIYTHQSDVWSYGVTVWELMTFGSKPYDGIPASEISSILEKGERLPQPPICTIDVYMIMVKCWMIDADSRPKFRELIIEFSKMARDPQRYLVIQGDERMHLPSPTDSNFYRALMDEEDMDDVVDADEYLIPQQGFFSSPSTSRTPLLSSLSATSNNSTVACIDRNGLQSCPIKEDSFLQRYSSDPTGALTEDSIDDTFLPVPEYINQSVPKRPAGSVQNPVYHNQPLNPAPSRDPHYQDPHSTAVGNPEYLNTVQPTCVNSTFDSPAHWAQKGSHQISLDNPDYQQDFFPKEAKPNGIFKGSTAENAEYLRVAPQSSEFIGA

`Cn1cc(-c2cc(C(=O)/N=c3\[nH]c4ccccc4n3[C@H]3CC[C@@H](O)CC3)ccn2)cn1` [I-048]: the IC50 in [1] (setting [8]) amounted to 0.4 nM; in [1] (setting [9]) it was 5.7 nM; on EGFR wt (setting [10]), 32.3 nM; on EGFR wt (setting [11]), 1310 nM; in assay [2] (setting [12]) it was 52.1 nM; in assay [2] (setting [13]), 48.2 nM. Besides, the half-inhibitory concentration (IC50) in [2] (setting [14]) amounted to 79.4 nM; in assay [2] (setting [15]), 39.2 nM; in assay [2] (setting [16]), 10.9 nM; in [2] (setting [17]) it was 9.1 nM; in [2] (setting [18]) it was 12 nM; in [2] (setting [19]) it was 32.9 nM. Moreover, the half-inhibitory concentration (IC50) in assay [3] came out at 540 nM; in assay [4], 1 nM; in assay [5], 7940 nM.

As to `Cn1cc(-c2cc(C(=O)/N=c3\[nH]c4ccccc4n3[C@H]3CCC[C@H](O)C3)ccn2)cn1` [I-137], the IC50 in assay [1] (setting [8]) amounted to 0.8 nM; at EGFR wt (setting [10]), 108 nM; in [2] (setting [12]), 100 nM; in [2] (setting [13]) it was 137 nM; in assay [2] (setting [14]), 178 nM; in assay [2] (setting [15]) it was 91.6 nM. Moreover, the half-inhibitory concentration (IC50) in assay [2] (setting [16]) is 16.6 nM; in [2] (setting [17]), 8.7 nM; in assay [2] (setting [18]), 20.7 nM; in [2] (setting [19]) it was 72 nM; in assay [3], 2060 nM; in assay [4], 2 nM. Moreover, the half-maximal inhibitory concentration (IC50) in assay [5] came out at 9060 nM.

For `COc1ccccc1-c1cc(C(=O)/N=c2\[nH]c3cc(C)ccc3n2[C@H]2CC[C@@H](O)CC2)ccn1` [I-109], the IC50 amounted to 0.5 nM in [1] (setting [8]); 8.8 nM in assay [1] (setting [9]); 12.5 nM at EGFR wt (setting [10]); 549 nM on EGFR wt (setting [11]); 51.5 nM in [2] (setting [12]); 146 nM in [2] (setting [13]). Further, the IC50 in assay [2] (setting [14]) was 177 nM; in assay [2] (setting [15]) it was 38.3 nM; in assay [2] (setting [16]) it was 9.1 nM; in assay [2] (setting [17]) it was 7 nM; in [2] (setting [18]), 23.5 nM; in [2] (setting [19]), 52.9 nM. Moreover, the half-maximal inhibitory concentration (IC50) was determined as 728 nM in assay [3], 4 nM in assay [4] and 8650 nM in [5].

With `Cn1cc(-c2cc(C(=O)/N=c3\[nH]c4ccccc4n3C3CCCCC3)ccn2)cn1` [I-015], the 50% inhibitory concentration (IC50) turned out to be 2 nM in assay [6]; 0.8 nM in assay [1] (setting [8]); 10.5 nM in assay [1] (setting [9]); 125 nM at EGFR wt (setting [10]); 114 nM on EGFR wt (setting [11]); 290 nM in assay [2] (setting [12]). For the same compound, the IC50 is 284 nM in assay [2] (setting [13]); 408 nM in [2] (setting [14]); 274 nM in [2] (setting [15]); 45.8 nM in assay [2] (setting [16]); 21.1 nM in assay [2] (setting [17]); 47 nM in assay [2] (setting [18]). In addition, the concentration for half-maximal inhibition (IC50) in [2] (setting [19]) is 169 nM; in assay [3], 2220 nM; in [4], 9 nM; in assay [5] it was 6520 nM.

As to `C=CC(=O)Nc1cc(Nc2nccc(-c3cn(C)c4ccccc34)n2)c(OC)cc1N(C)CCN(C)C` [osimertinib], the objective response rate in the assay on EGFR M+ NSCLC patients is on record as 60-85%. Besides, the “average duration until disease progression” value is recorded as 19 months in the assay on EGFR M+ NSCLC patients (previously untreated EGFR M+ NSCLC patients) and 10 months in [7]. Besides, the “patients responding to treatment” value in assay [7] (previously treated with earlier generation EGFR TKI) is “Approximately 70%”.

As for `COc1cc2ncnc(Nc3ccc(F)c(Cl)c3)c2cc1NC(=O)/C=C/CN1CCCCC1` [dacomitinib, reference compound], the concentration for half-maximal inhibition (IC50) in [3] stood at 0.64 nM.

Regarding `Cc1cc(C(=O)Nc2nc3cccc(Cl)c3n2[C@@H]2CCCCN(C(=O)/C=C/CN(C)C)C2)ccn1` [nazartinib, reference compound], the IC50 is 95.1 nM in assay [3] and greater than 5000 nM in [5].

Consider `C#Cc1cccc(Nc2ncnc3cc(OCCOC)c(OCCOC)cc23)c1` [erlotinib], for which the objective response rate in the assay with EGFR M+ NSCLC patients is 60-85%.
